In the experiment the test system is HL-60. In words: Apoptotic activity against HL-60 (Human leukemia) cell after 6 hr of stimulation measured by MTT assay. The experiment is classed as functional. For orientation: Tetrazolium assays rely on reduction of a dye to a coloured formazan, in cell work by metabolically active cells.
Compound `CCCCCCCCCCCCCCC[C@@H](O)[C@H](CCO)NC(C)=O` gave an Apoptosis of 21%.

Turning to `CCCCCCCCCCCCC/C=C/[C@@H](O)[C@H](CCO)NC(C)=O`, the Apoptosis is given as 48%. `CCCCCCCCCCCCC/C=C/[C@@H](O)[C@H](CCCO)NC(C)=O` yielded an Apoptosis of 52%. The figure for `CCCCCCCCCCCCC/C=C/[C@@H](O)[C@H](CO)NC(C)=O` (stereo in doubt; form 1) is 62%; for `CCCCCCCCCCCCCCC[C@@H](O)[C@H](CCCO)NC(C)=O` it is 20%.

The record behind these values is ChEMBL document CHEMBL1136578, “Synthesis of non-natural C2-homo-ceramide and its apoptotic activity against HL-60 cells” (2003).
